Active and inactive are the calls of the source. The rule behind the calls is not given here.
What was measured:
Danio rerio [1] = organism: Danio rerio; assay: Teratogenicity in zebrafish embryo at 1 to 30 uM incubated until 5 days post fertilization; type: ADME, organism-based; details: in vivo, 120 h
Danio rerio [2] = organism: Danio rerio; assay: Induction of apoptosis in zebrafish embryo after 24 to 48 hrs by acridine orange staining based fluorescence microscopy; type: functional, organism-based
[3] = Therapeutic index, ratio of NOAEL to apoptotic EC50 in Zebrafish embryo; type: organism-based, Danio rerio; details: in vivo, read-out: TI
Danio rerio [4] = organism: Danio rerio; assay: Hepatotoxicity in zebrafish embryo incubated until 7 days post fertilization; type: organism-based; details: in vivo, 168 h
Danio rerio [5] = organism: Danio rerio; assay: Induction of apoptosis in zebrafish embryo at 30 uM after 24 to 48 hrs by acridine orange staining based fluorescence microscopy; type: functional, organism-based
Danio rerio [6] = organism: Danio rerio; assay: Hepatotoxicity in zebrafish embryo at 1 to 30 uM incubated until 7 days post fertilization; type: organism-based; details: in vivo, 168 h
Danio rerio [7] = organism: Danio rerio; assay: Teratogenicity in zebrafish embryo incubated until 5 days post fertilization; type: ADME, organism-based; details: in vivo, 120 h
Danio rerio [8] = organism: Danio rerio; assay: Induction of apoptosis in zebrafish embryo at 1 to 30 uM after 24 to 48 hrs by acridine orange staining based fluorescence microscopy; type: functional, organism-based
Danio rerio [9] = organism: Danio rerio; assay: Teratogenicity in zebrafish embryo at 30 uM incubated until 5 days post fertilization; type: ADME, organism-based; details: in vivo, 120 h
Danio rerio [10] = organism: Danio rerio; assay: Induction of apoptosis in zebrafish embryo at 1 to 3 uM after 24 to 48 hrs by acridine orange staining based fluorescence microscopy; type: functional, organism-based
Danio rerio [11] = organism: Danio rerio; assay: Hepatotoxicity in zebrafish embryo assessed as induction of mortality at 30 uM incubated until 7 days post fertilization; type: organism-based; details: in vivo, 168 h
Danio rerio [12] = organism: Danio rerio; assay: Hepatotoxicity in zebrafish embryo at 10 uM incubated until 7 days post fertilization; type: organism-based; details: in vivo, 168 h
Danio rerio [13] = organism: Danio rerio; assay: Teratogenicity in zebrafish embryo at 10 uM incubated until 5 days post fertilization; type: ADME, organism-based; details: in vivo, 120 h

SMILES	Activity (Danio rerio [1])	EC50 (Danio rerio [2])	selectivity ratio [3]	NOAEL (Danio rerio [4])	Activity (Danio rerio [5])	Activity (Danio rerio [6])	NOAEL (Danio rerio [7])	Activity (Danio rerio [8])	Activity (Danio rerio [9])	Activity (Danio rerio [10])	Activity (Danio rerio [11])	Activity (Danio rerio [12])	Activity (Danio rerio [13])
Fc1cc(F)cc(-c2cc3nccnc3s2)c1	Non-toxic	9.82 µM	3.05	30 µM	Active	Non-toxic	30 µM	–	–	–	–	–	–
CCCc1cc2nc3ccccc3nc2s1	Non-toxic	4.46 µM	6.72	30 µM	Active	Non-toxic	30 µM	Dose-dependent effect	–	–	–	–	–
c1ccc(-c2cc3nc4ccccc4nc3s2)cc1	–	8.5 µM	1.17	10 µM	Active	Non-toxic	10 µM	–	Toxic	Active	–	–	–
Fc1cc(F)cc(-c2cc3nc4ccccc4nc3s2)c1	Non-toxic	10.3 µM	2.9	30 µM	Active	Non-toxic	30 µM	–	–	–	–	–	–
CC(C)(C)c1cc2nc3ccccc3nc2s1	–	4.89 µM	0.2	1 µM	Active	–	3 µM	Dose-dependent effect	Toxic	–	Toxic	Toxic	Non-toxic

— ChEMBL document CHEMBL3351682, “NaSH in the construction of thiophene ring fused with N-heterocycles: a rapid and inexpensive synthesis of novel small molecules as potential inducers of apoptosis” (Bioorg Med Chem Lett, 2014)
